Legend:
[1] = tested on: 3D10 MAb (raised against PvDBP region II); assay: Indirect ELISA, titration of 3D10 against coated peptides; assay type: binding, mouse; conditions: for 3D10 recognition of peptide by ELISA: peptide coated at 5 µg/ml, titration of 3D10, OD relative to isotype control IgG1
Description: (§1) Immunoglobulin G (IgG) reactivity was measured using the enzyme-linked immunosorbent assay (ELISA). Briefly, 96-well Maxisorb plates (catalogue no. 439454; Thermo Fisher Scientific) were coated with synthetic peptides and recombinant full-length VAR2CSA diluted in 1 x PBS and incubated overnight at 4°C. Coated plates were blocked with 4% bovine serum albumin (BSA, catalogue no. A7906; Sigma-Aldrich) for 1 h at 37°C, then washed once with 1 x PBST (0.1% Tween 20). Plates were incubated with primary antibody for 1 h at room temperature (RT) and washed four times with 1 x PBST. The washed plates were incubated at RT for 1 h with 100 µl of HRP-conjugated secondary antibody (goat anti-human HRP, catalogue no. ab98624, Abcam; goat anti-mouse HRP, catalogue no. 170-6516, Bio-Rad, Mississauga, Canada; goat anti-rat HRP catalogue no. 62-9520). After four washes, 100 µl of 3,3′,5,5′-Tetramethylbenzidine (TMB, catalogue no. T0440; Sigma-Aldrich) were added and the reaction was stopped after 30 mins with an equal volume of H2SO4 (0.5 N). Human sera were screened once, in duplicate. The optical density (OD) values were converted to arbitrary units relative to the positive control sera included on each plate using the formula: AU = ODtest -ODbackground/ODpositive control pool – ODbackground)*100. The positive control pool refers to the OD of a pool of Colombian or Ugandan samples that were seroreactive against the peptides or VAR2CSA, respectively. The background is the OD with secondary antibody alone. The cut-off for seropositivity was based on the mean AU of sera from 12 individual Colombians not exposed to malaria plus 2 standard deviations; data to generate the cut-off are from two independent experiments. Only sera that were above the cut-off for VAR2CSA seropositivity were screened against CRP1 and SD1CLIPS.

[2] = tested on: 3D10 MAb binding to SD1CLIPS; assay: Competition ELISA of 3D10 with SD1CLIPS as capture antigen; parameters: species or system mouse; conditions: 3D10 (1.72 µg/ml) pre-incubated 1 h RT with 10 µg/ml competing peptide; SD1CLIPS coated 1 µg/ml; compared with negative control peptide P10; 3 independent experiments
[3] = tested on: 3D10 MAb binding to recombinant VAR2CSA (FCR3); assay: Competition ELISA of 3D10 with VAR2CSA as capture antigen; parameters: species or system mouse; conditions: 3D10 (8.6 µg/ml) pre-incubated 1 h RT with 10 µg/ml competing peptide; VAR2CSA coated 1 µg/ml; 3 independent experiments
Description: as §1, with “The positive control pool refers to the OD of a pool of Colombian or Ugandan samples that were seroreactive against the peptides or VAR2CSA, respectively. The background is the OD with secondary antibody alone. The cut-off for seropositivity was based on the mean AU of sera from 12 individual Colombians not exposed to malaria plus 2 standard deviations; data to generate the cut-off are from two independent experiments. Only sera that were above the cut-off for VAR2CSA seropositivity were screened against CRP1 and SD1CLIPS.” left out

[4] = Isothermal titration calorimetry (ITC) of peptides with CSA; assay type: binding, Bovine; conditions: 25°C; for Binding to CSA by ITC: PBS with 0.5% acetonitrile pH 7.4, 50 µM peptide in cell, 1 mM CSA in syringe, 25 injections of 1.5 µl
Description: Bovine tracheal CSA was purchased from Sigma-Aldrich (Cat no C9819). The energetics of the binding of peptides to CSA was performed at 25°C, on a MicroCal PEAQ-ITC calorimeter (Malvern Panalytical, Malvern, USA). For all experiments, samples were prepared in PBS containing 0.5% acetonitrile, pH 7.4. The reference cell was loaded with autoclaved milli-Q ultra-pure water; the sample cell was loaded with peptide solution (50 µM) and the syringe was filled with 1 mM CSA solution (based on a molecular weight of 50 kDa). In each titration, 25 injections of 1.5 μl of the CSA solution were made into the sample cell. A spacing of 150 s between each injection was applied to enable the system to reach equilibrium. The ITC data were analyzed with MicroCal-PEAQ-ITC Analysis Software v1.41. Binding parameters such as the ΔH (enthalpy change) and the ΔS (entropy change) were determined by fitting the experimental binding isotherms with the ‘one set of sites’ fitting model and GraphPad Prism software (version 9) was used to plot the results.

[5] = tested on: rat-CRP1 antibodies (sera of CRP1-BSA immunized rats); assay: Indirect ELISA, reactivity of rat anti-CRP1 sera against peptides; assay type: binding; conditions: peptide coated 5 µg/ml, rat sera 1/100 dilution
Description: as §1, with “The positive control pool refers to the OD of a pool of Colombian or Ugandan samples that were seroreactive against the peptides or VAR2CSA, respectively. The background is the OD with secondary antibody alone. The cut-off for seropositivity was based on the mean AU of sera from 12 individual Colombians not exposed to malaria plus 2 standard deviations; data to generate the cut-off are from two independent experiments. Only sera that were above the cut-off for VAR2CSA seropositivity were screened against CRP1 and SD1CLIPS.” left out

[6] = tested on: P. falciparum CS2 infected erythrocytes (VAR2CSA-expressing) binding to CSA; assay: Inhibition of binding assay (IBA), static binding of IEs to CSA; assay type: cell-based; conditions: CS2 IEs preincubated with soluble CSA 250 µg/ml, positive control; relative to AE-BSA control
Description: CRP1 was conjugated to BSA (as carrier protein) at the N-terminus through an azide-alkyne cycloaddition and outsourced commercially to ProSci (California, USA) for rat immunizations. As controls, an unrelated peptide conjugate (P5-BSA), the PAMVAC vaccine candidate (ID1-ID2a region from VAR2CSA) and the carrier protein conjugated to the linker (azido-ethanol (AE-BSA)) were included. Briefly, two female Sprague Dawley rats (~11 weeks old) were immunized intraperitoneally on day 0 with 75 µg of each antigen formulated in PBS and Complete Freund’s Adjuvant (CFA) followed by 3 booster immunizations with 50 µg of antigen in Incomplete Freund’s Adjuvant at 2-week intervals. Sera were collected 14 days after the final boost.
P. falciparum CS2 parasites were cultured in vitro as described ([Trager and Jensen, 1976]). Parasites were selected for adhering to CSA every 3-4 weeks to enrich for parasites expressing VAR2CSA. […]
The ability of anti-CRP1 IgG to block parasite binding to CSA in vitro was assessed by a static binding assay ([Gnidehou et al., 2014]). […] After washing, spots were fixed with glutaraldehyde and stained with Giemsa before imaging using a EVOS FL Auto microscope (Invitrogen) and the number of parasites bound per spot was analyzed using ImageJ. Percent inhibition of binding was calculated relative to the counts from the AE-BSA control.

Substance	3D10 recognition of peptide by ELISA [1]	Binding to CSA by ITC [4]	Recognition of peptide by rat-CRP1 antibodies (ELISA) [5]	also measured
KAYISEKKQEWDKQKTKYENKYVGKSASDLLKEN [CRP1-K1510A]	partially reduced binding			
KKYISEKKQEWDAQKTAYENAYVGKSASDLLKEN [CRP1-AAA]	completely abolished antibody recognition			
KKYISEKKQEWDKQKTKYENKYVGKSASDLLKEN [CRP1]	recognizes	heat release after each CSA injection, consistent with CSA binding to CRP1	recognized	3D10 recognition of peptide by ELISA compared with SD1CLIPS ([1]; both peptides coated at 1 µg/ml, titration of 3D10): substantially weaker; Competition for 3D10 binding to SD1CLIPS [2]: significant loss in SD1CLIPS recognition; Competition for 3D10 binding to VAR2CSA [3]: same binding inhibition toward VAR2CSA as compared to SD1CLIPS; Binding to CSA by ITC in the presence of 100 mM NaCl ([4]; 50 µM peptide, 1 mM CSA, in the presence of 100 mM NaCl): abrogated
KQIWLKSKSKNKTEEKGKDYYQKEKYKANLEVSD [Scrambled CRP1 peptide, scrambled version of CRP1, reference compound]	poorly recognized	also bound to CSA	did not recognize	
chondroitin sulfate A [Soluble CSA]				Percent inhibition of IE binding to CSA [6]: over 90%
